Results from patent US8252723B2, “Substituted 1-(3-pyridinyl)pyrazol-4-ylacetic acids, processes for their preparation and their use as herbicides and plant growth regulators” (Bayer CropScience AG, priority 2006, dated 2012).

tested on: summer wheat of the cultivar 'Triso'; assay: Plant growth regulation test: culm stabilization of crop plants; type: in vivo; conditions: application rate of 30 to 300 g of active substance per hectare, treated at stage BBCH 31, culm length measured after ears had formed
Description: With stirring, the compound of the formula (I) in question was, in the form of a water-dispersible powder, together with a surfactant (customary adjuvant at an application rate of 1 l/ha), mixed with water such that a homogenous spray liquor was formed, and applied at an application rate of 300 l of water/ha (converted).
Seeds of summer wheat of the cultivar ‘Triso’ were sown at a depth of 1 cm in plant pots and cultivated outdoors until treatment.
The plants were treated on a laboratory track sprayer with spray liquors of the test substances at macrostage 3 after having reached about 10% of the maximum longitudinal growth typical for the cultivar (stage BBCH 31) and, after the treatment, returned outdoors.
After the ears had formed, the length of the culms were measured. The culm stabilization was evaluated as a percentage of the untreated control.

Row | SMILES | longitudinal growth (culm length) of summer wheat
1 | Cc1nn(-c2cccnc2)c(-c2ccc(Cl)cc2)c1CC(=O)OCC1CC1 [Example 3-78] | effectively shortened
2 | COC(=O)Cc1c(C)nn(-c2cnccc2C)c1-c1cc(Cl)cc(Cl)c1 [Example 2-68] | effectively shortened
3 | COC(=O)Cc1c(C)nn(-c2cnccc2C)c1-c1ccc(F)cc1 [Example 2-37] | effectively shortened
4 | Cc1nn(-c2cccnc2)c(-c2ccccn2)c1CC(=O)O [Example 1-109] | effectively shortened
5 | COC(=O)Cc1cnn(-c2cnccc2C)c1-c1ccc(Cl)cc1 [Example 2-133] | effectively shortened
6 | Cc1nn(-c2cccnc2)c(-c2ccccc2)c1CC(=O)OCC#Cc1ccccc1 [Example 3-164] | effectively shortened
7 | Cc1csc(-c2c(CC(=O)O)c(C)nn2-c2cccnc2)c1 [Example 1-59] | effectively shortened
8 | CCCOC(=O)Cc1c(C)nn(-c2cccnc2)c1-c1ccccn1 [Example 3-34] | effectively shortened
9 | COC(=O)Cc1c(C)nn(-c2cnccc2C(F)(F)F)c1-c1ccccc1 [Example 2-8] | effectively shortened
10 | Cc1ccncc1-n1nc(C)c(CC(=O)O)c1-c1ccsc1 [Example 1-56] | effectively shortened
11 | COC(=O)Cc1c(C)nn(-c2cccnc2)c1-c1ccc(Cl)cc1Cl [Example 2-114] | effectively shortened
12 | COC(=O)Cc1c(C)nn(-c2cncc(C)c2)c1-c1ccc(Cl)cc1 [Example 2-51] | effectively shortened
13 | C#CCOC(=O)Cc1c(C)nn(-c2cccnc2)c1-c1ccccc1 [Example 3-54] | effectively shortened
14 | CCOC(=O)Cc1c(C)nn(-c2cnccc2C)c1-c1ccc(Cl)cc1 [Example 3-1] | effectively shortened
15 | C#CCOC(=O)Cc1c(C)nn(-c2cccnc2)c1-c1ccc(Cl)cc1 [Example 3-55] | effectively shortened
16 | Cc1ccncc1-n1nc(C)c(CC(=O)O)c1-c1cccc(C(F)(F)F)c1 [Example 1-19] | effectively shortened
17 | COC(=O)Cc1c(C)nn(-c2cccnc2)c1-c1ccc(C)nc1 [Example 2-128] | effectively shortened
18 | Cc1nn(-c2cccnc2)c(-c2ccc(Cl)c(C(F)(F)F)c2)c1CC(=O)O [Example 1-47] | effectively shortened
19 | Cc1nn(-c2cccnc2)c(-c2ccc(Cl)cc2)c1CC(=O)OC1COC1 [Example 3-232] | effectively shortened
20 | COC(=O)Cc1c(C)nn(-c2cnccc2C)c1-c1sccc1C [Example 2-53] | effectively shortened
21 | Cc1nn(-c2cnccc2Cl)c(-c2ccc(Cl)cc2)c1CC(=O)O [Example 1-29] | effectively shortened
22 | Cc1ccncc1-n1nc(C)c(CC(=O)OCC2CC2)c1-c1ccc(Cl)cc1 [Example 3-98] | effectively shortened

Row | SMILES | longitudinal growth (culm length) of summer wheat
23 | Cc1nn(-c2cccnc2)c(-c2ccc(Cl)cc2)c1CC(=O)OCCN(C)C [Example 3-231] | effectively shortened
24 | C=C(Cl)COC(=O)Cc1c(C)nn(-c2cccnc2)c1-c1ccc(OC)nc1 [Example 3-193] | effectively shortened
25 | COc1ccc(-c2c(CC(=O)O)c(C)nn2-c2cccnc2)cn1 [Example 1-62] | effectively shortened
26 | O=C(O)Cc1cnn(-c2cccnc2)c1-c1ccccc1 [Example 1-72] | effectively shortened
27 | COC(=O)Cc1c(C)nn(-c2cccnc2)c1-c1ccc(OC)nc1 [Example 2-62] | effectively shortened
28 | COC(=O)Cc1cnn(-c2cccnc2)c1-c1ccccc1 [Example 2-72] | effectively shortened
29 | Cc1nn(-c2ccc(C(F)(F)F)nc2)c(-c2ccccc2)c1CC(=O)O [Example 1-9] | effectively shortened
30 | Cc1cc(C)cc(-c2c(CC(=O)O)c(C)nn2-c2cnccc2C)c1 [Example 1-33] | effectively shortened
31 | C#CCOC(=O)Cc1c(C)nn(-c2cccnc2)c1-c1ccc(F)cc1 [Example 3-68] | effectively shortened
32 | C#CCOC(=O)Cc1c(C)nn(-c2cccnc2)c1-c1ccc(OC)nc1 [Example 3-63] | effectively shortened
33 | Cc1nn(-c2cnccc2C(F)(F)F)c(-c2ccccc2)c1CC(=O)O [Example 1-8] | effectively shortened
34 | CCCc1nn(-c2cnccc2C)c(-c2ccc(Cl)cc2)c1CC(=O)OC [Example 2-124] | effectively shortened
35 | Cc1nn(-c2cccnc2)c(-c2ccccc2)c1CC(=O)OCC1CC1(Cl)Cl (centres unmarked) [Example 3-113] | effectively shortened
36 | Cc1csc(-c2c(CC(=O)OCC3CC3)c(C)nn2-c2cccnc2)c1 [Example 3-85] | effectively shortened
37 | COC(=O)Cc1c(C)nn(-c2cnccc2C)c1-c1cccc(Br)c1 [Example 2-40] | effectively shortened
38 | COC(=O)Cc1cnn(-c2cnccc2C)c1-c1ccccc1 [Example 2-73] | effectively shortened
39 | C#CC(C)OC(=O)Cc1c(C)nn(-c2cccnc2)c1-c1ccccc1 (centres unmarked) [Example 3-140] | effectively shortened
40 | Cc1cccc(-c2c(CC(=O)O)c(C)nn2-c2cnccc2C)c1 [Example 1-38] | effectively shortened
41 | Cc1nn(-c2cccnc2)c(-c2ccccc2)c1CC(=O)OCC1CCC1 [Example 3-168] | effectively shortened
42 | Cc1nn(-c2cccnc2)c(-c2ccccc2)c1CC(=O)OCC(F)=C(Cl)Cl [Example 3-101] | effectively shortened
43 | CCCc1nn(-c2cccnc2)c(-c2ccc(Cl)cc2)c1CC(=O)OC [Example 2-89] | effectively shortened
44 | COC(=O)Cc1c(C)nn(-c2cnccc2C)c1-c1cccc(C)c1 [Example 2-38] | effectively shortened

Row | SMILES | longitudinal growth (culm length) of summer wheat
45 | COC(=O)Cc1c(C)nn(-c2cccnc2)c1-c1cccc(C(F)(F)F)c1 [Example 2-18] | effectively shortened
46 | Cc1nn(-c2cccnc2)c(-c2ccccc2Cl)c1CC(=O)O [Example 1-31] | effectively shortened
47 | COC(=O)Cc1c(C)nn(-c2cccnc2)c1-c1ccncc1 [Example 2-126] | effectively shortened
48 | COC(=O)Cc1c(C)nn(-c2cccnc2)c1-c1ccccc1Cl [Example 2-31] | effectively shortened
49 | COC(=O)Cc1c(C)nn(-c2cnccc2C)c1-c1ccc(Cl)cc1 [Example 2-25] | effectively shortened
50 | Cc1nn(-c2cccnc2)c(-c2ccccc2)c1CC(=O)OC(C)C [Example 3-36] | effectively shortened
51 | COC(=O)Cc1c(C)nn(-c2cnccc2Cl)c1-c1ccccc1 [Example 2-30] | effectively shortened
52 | Cc1nn(-c2cccnc2)c(-c2cccs2)c1CC(=O)O [Example 1-57] | effectively shortened
53 | COC(=O)Cc1c(C)nn(-c2cnccc2Cl)c1-c1ccc(Cl)cc1 [Example 2-29] | effectively shortened
54 | Cc1ccncc1-n1nc(C)c(CC(=O)O)c1-c1cccs1 [Example 1-52] | effectively shortened
55 | COc1ccncc1-n1nc(C)c(CC(=O)O)c1-c1ccc(Cl)cc1 [Example 1-35] | effectively shortened
56 | COC(=O)Cc1c(C)nn(-c2cccnc2)c1-c1ccc(Cl)s1 [Example 2-60] | effectively shortened
57 | COC(=O)Cc1c(C)nn(-c2cncc(C)c2)c1-c1ccccc1 [Example 2-50] | effectively shortened
58 | COc1cccc(-c2c(CC(=O)O)c(C)nn2-c2cccnc2)n1 [Example 1-145] | effectively shortened
59 | Cc1ccncc1-n1nc(C)c(CC(=O)O)c1-c1ccc(Cl)c(C(F)(F)F)c1 [Example 1-48] | effectively shortened
60 | CC#CCOC(=O)Cc1c(C)nn(-c2cccnc2)c1-c1ccccn1 [Example 3-136] | effectively shortened
61 | COC(=O)Cc1c(C)nn(-c2cccnc2)c1-c1ccc(Cl)cc1 [Example 2-26] | effectively shortened
62 | COC(=O)Cc1c(C)nn(-c2cnccc2SC)c1-c1ccccc1 [Example 2-44] | effectively shortened
63 | C#CCOC(=O)Cc1c(C)nn(-c2cccnc2)c1-c1ccccn1 [Example 3-73] | effectively shortened
64 | COc1ccc(-c2c(CC(=O)O)c(C)nn2-c2cnccc2C)cc1 [Example 1-13] | effectively shortened
65 | COC(=O)Cc1c(C)nn(-c2cnccc2C)c1-c1ccc(-c2ccccc2)cc1 [Example 2-41] | effectively shortened
